In US20250084095A1, “Aminopyrimidine Derivatives as Cyclin-Dependent Kinase Inhibitors” (Accutar Biotechnology Inc., priority 2023, published 2025):
Read-outs that look alike come from different tables or passages of the source.

Key:
[1] = test system: Phospho-Rb (Ser807/811) in MCF7 cells; assay: Phospho-Rb expression inhibition in MCF7 cells quantified by in cell Western; format: cell-based, human; conditions: for IC50: in cell Western
Summary of the method: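 MCF7 cells were seeded at 20,000/well, grown overnight, then treated 24 h at 37 °C with compound dilutions (0.1% DMSO from 1000× stocks). Fixed cells were co-stained for phospho-Rb Ser807/811 and total Rb. Near-infrared dual-channel in-cell Western imaging was the read-out.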

22RV1 cells = assay: Cell growth inhibition of 22RV1 cells (CellTiter-Glo); format: cell-based; conditions: for GI50: 5 days, CellTiter-Glo
Summary of the method: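 22RV1 cells were plated in RPMI1640 with FBS (20% in one version, 10% in the other) and dosed next day at various concentrations from DMSO stocks. After 5 days at 37 °C, viability was measured by CellTiter-Glo luminescence.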

[2] = Homo sapiens, MCF7, 24 h, 24 hours, read-out: MCF7 pRb IC50
[3] = Homo sapiens, 22Rv1, 120 h, read-out: 22RV1 Cell Growh GI50

Compound | IC50 [1, 2] [nM] | GI50 (22RV1 cells; [3]) [nM] | other results
Cc1c(CN2CC(F)C2)n(C(C)C)c2cc(-c3nc(N[C@@H]4C[C@H]5CO[C@H](O5)[C@H]4O)ncc3F)ccc2c1=O [Compound 197, 7-(5-fluoro-2-(((1S,3R,4S,5R)-4-hydroxy-6,8-dioxabicyclo[3.2.1]octan-3-yl)amino)pyrimidin-4-yl)-2-((3-fluoroazetidin-1-yl)methyl)-1-isopropyl-3-methylquinolin-4(1H)-one] | 40 to 150 | 120 to 450 | 
Cc1c(-c2nc(N[C@@H]3C[C@H]4CO[C@H](O4)[C@H]3O)ncc2C(F)F)sc2c(C(C)C)cn(C)c(=O)c12 [Compound 227, 2-(5-(difluoromethyl)-2-(((1S,3R,4S,5R)-4-hydroxy-6,8-dioxabicyclo[3.2.1]octan-3-yl)amino)pyrimidin-4-yl)-7-isopropyl-3,5-dimethylthieno[3,2-c]pyridin-4(5H)-one] | ≤ 40 | ≤ 120 | 
Cc1c(CN2[C@@H](C)COC[C@@H]2C)n(C(C)C)c2cc(-c3nc(N[C@@H]4C[C@H]5CO[C@H](O5)[C@H]4O)ncc3F)ccc2c1=O [Compound 199, 2-(((3S,5S)-3,5-dimethylmorpholino)methyl)-7-(5-fluoro-2-(((1S,3R,4S,5R)-4-hydroxy-6,8-dioxabicyclo[3.2.1]octan-3-yl)amino)pyrimidin-4-yl)-1-isopropyl-3-methylquinolin-4(1H)-one] | ≤ 40 | ≤ 120 | 
Cc1c(-c2nc(N[C@@H]3C[C@H]4CO[C@H](O4)[C@H]3O)ncc2Cl)sc2c(C(C)C)cn(C)c(=O)c12 [Compound 223, 2-(5-chloro-2-(((1S,3R,4S,5R)-4-hydroxy-6,8-dioxabicyclo[3.2.1]octan-3-yl)amino)pyrimidin-4-yl)-7-isopropyl-3,5-dimethylthieno[3,2-c]pyridin-4(5H)-one] | ≤ 40 | ≤ 120 | 
CC(C)n1c(CN2[C@@H](C)COC[C@@H]2C)c(F)c(=O)c2ccc(-c3nc(N[C@@H]4C[C@H]5CO[C@H](O5)[C@H]4O)ncc3Cl)cc21 [Compound 201, 7-(5-chloro-2-(((1S,3R,4S,5R)-4-hydroxy-6,8-dioxabicyclo[3.2.1]octan-3-yl)amino)pyrimidin-4-yl)-2-(((3S,5S)-3,5-dimethylmorpholino)methyl)-3-fluoro-1-isopropylquinolin-4(1H)-one] | 40 to 150 | 120 to 450 | 
Cc1c(CN(C)C)n(C(C)C)c2cc(-c3nc(N[C@@H]4C[C@H]5CO[C@H](O5)[C@H]4O)ncc3F)ccc2c1=O [Compound 195, 2-((dimethylamino)methyl)-7-(5-fluoro-2-(((1S,3R,4S,5R)-4-hydroxy-6,8-dioxabicyclo [3.2.1]octan-3-yl)amino)pyrimidin-4-yl)-1-isopropyl-3-methylquinolin-4(1H)-one] | 40 to 150 | 120 to 450 | 
CC(C)n1c([C@@H]2CCOC2)nc2c(F)cc(-c3nc(N[C@@H]4C[C@H]5CO[C@H](O5)[C@H]4O)ncc3Cl)cc21 [Compound 268, (1S,3R,4S,5R)-3-((5-chloro-4-(4-fluoro-1-isopropyl-2-((S)-tetrahydrofuran-3-yl)-1H-benzo[d]imidazol-6-yl)pyrimidin-2-yl)amino)-6,8-dioxabicyclo[3.2.1]octan-4-ol] | ≤ 40 | ≤ 120 | 
CC(C)n1c(CN2CC[C@@H](F)C2)c(F)c(=O)c2ccc(-c3nc(N[C@@H]4C[C@H]5CO[C@H](O5)[C@H]4O)ncc3F)cc21 [Compound 202, 3-fluoro-7-(5-fluoro-2-(((1S,3R,4S,5R)-4-hydroxy-6,8-dioxabicyclo[3.2.1]octan-3-yl)amino)pyrimidin-4-yl)-2-(((R)-3-fluoropyrrolidin-1-yl)methyl)-1-isopropylquinolin-4(1H)-one] | 150 to 1000 | 450 to 3000 | 
CC(C)n1c(C(C)(C)O)nc2c(F)cc(-c3nc(N[C@@H]4C[C@H]5CO[C@H](O5)[C@H]4O)ncc3Cl)cc21 [Compound 1, (1S,3R,4S,5R)-3-((5-chloro-4-(4-fluoro-2-(2-hydroxypropan-2-yl)-1-isopropyl-1H-benzo[d]imidazol-6-yl)pyrimidin-2-yl)amino)-6,8-dioxabicyclo[3.2.1]octan-4-ol] | 40 to 150 | ≤ 120 | IC50 ([1]; Homo sapiens, MCF7, 24 h, 24 h incubation, read-out: MCF7, pRb (Ser807/811), IC50): 40.4 nM; Potency in p-Rb inhibition compared with the reference compound ([1]; versus PF-07220060): higher potency; GI50 (22RV1 cells; Homo sapiens, 22Rv1, 120 h, read-out: 22RVI, GI50): 144 nM; Potency in 22RV1 cell growth inhibition compared with the reference compound (22RV1 cells; versus PF-07220060): slightly higher potency
CC(C)n1c(C(C)(C)O)nc2c(F)cc(-c3nc(N[C@@H]4CCOC[C@H]4O)ncc3Cl)cc21 [Reference Compound, PF-07220060, reference compound] |  |  | IC50 ([1]; 24 h incubation, read-out: MCF7, pRb (Ser807/811), IC50): 65.2 nM; GI50 (22RV1 cells; read-out: 22RVI, GI50): 153 nM
